Test [1] has as its system Cor26 CRH mice. Description: Sleep EEG/EMG recording of REMS levels in Cor26 CRH mice treated with CRH-R1 antagonist. The conditions noted are these: 50 mg/kg/d via drinking water; for REMS levels: CRH-overexpressing Cor26 CRH mice.
Test [2] deals with mice overexpressing CRH in the forebrain. The conditions noted are these: Kimura et al. 2010; cited from earlier work.
Test [3] concerns CRH-COE^CNS mice. Description: Sleep EEG/EMG recording of REMS activity in CRH-COE^CNS mice treated with CRH-R1 antagonist. The class given is in vivo, mouse. The conditions noted are these: 50 mg/kg/d via drinking water; for REMS activity: CRH-COE^CNS mice, versus baseline, significant beginning with treatment day two (DMP-696 P<0.05; SSR125543 P≦0.035). The protocol: Experiments were conducted with two different mouse lines of excessive central CRH secretion and their respective control littermates (CL). Mice of the CRH-COE^CNS line are characterised by CRH-overexpression within the whole CNS, whereas mice of the Cor26 CRH line display a CRH-overexpression specific to CRH-ergic neurons of the CNS. Three different CRHR1 antagonists were tested. […] In all cases, animals were left to recover from EEG/EMG-electrode implantation for two weeks, after which two days of baseline recording were initiated. Treatment with CRH-R1 antagonist or respective vehicle control commenced thereafter for five consecutive days. Antagonists were applied through the drinking water at a daily dose of 50 mg/kg body weight. EEG and EMG recordings were manually scored as wake, non-REMS (NREMS), and REMS in four second epochs by an experienced evaluator.

SMILES strings stand for the structures.

For `CCC(CC)Oc1cc(C)nc(Oc2c(C)cc(C)cc2C)c1C` [CP-316,311], the REMS levels entry in test [1] (50 mg/kg/day) is listed as “apparently seemed weak”; in test [1] (listed as CP-316311, 50 mg/kg/day) it was “suppressed”. Further, the “REMS levels, area under the curve (AUC) within the light period, baseline versus treatment day three” value in test [1] (Cor26 CRH mice, P=0.006) is “significant decrease”.

On to `COCC(COC)Nc1nc(C)nc2c(-c3ccc(Cl)cc3Cl)c(C)nn12` [DMP-696], for which the REM enhancement entry in test [2] is listed as “reverse the REM enhancement”. Besides, the “REMS activity, treatment day three” value in test [3] (CRH-COE^CNS animals, treatment day three) is reported as “strongest suppression”. Moreover, the REMS activity entry in test [3] (50 mg/kg/day) is given as “significant decrease”; in test [3] (listed as DMP696, 50 mg/kg/day), “suppressed”.

The record behind these values is patent US20150278438A1, “GENETIC PREDICTORS OF RESPONSE TO TREATMENT WITH CRHR1 ANTAGONISTS” (MAX-PLANCK-GESELLSCHAFT ZUR FÖRDERUNG DER WISSENSCHAFTEN …, priority 2012, published 2015).
